Tests used:
human TLR7 = human TLR7 (Homo sapiens (Human), UniProt Q9NYK1); assay: HEK-Blue TLR7 reporter assay for TLR7 agonist activity; format: cell-based; conditions: HEK-Blue TLR7 cells, SEAP reporter, 18 h treatment; read-out: TLR7 Agonism (EC50)
Experimental: This example describes a method for assaying TLR7 agonist activity of the compounds disclosed in this specification.
HEK-Blue™ TLR7 cells were added to each well of a 384-well tissue-culture plate (15,000 cells per well) and incubated 16-18 h at 37° C., 5% CO2. Compounds (100 nl) were dispensed into wells containing the HEK-Blue™ TLR cells and the treated cells were incubated at 37° C., 5% CO2. After 18 h treatment ten microliters of freshly-prepared Quanti-Blue™ reagent (Invivogen) was added to each well, incubated for 30 min (37° C., 5% CO2) and SEAP levels measured using an Envision plate reader (OD=620 nm).

interleukin 6 (IL-6) = assay: IL-6 induction in human whole blood (AlphaLISA); format: cell-based; conditions: 37° C., 20 h
Experimental: This example describes a method for assaying interleukin 6 induction by compounds disclosed in this specification.
Compounds diluted in DMSO were transferred to individual wells of a Matrix Technologies clear, V-bottom 384-well plate using ECHO acoustic liquid handling technology (25 nL per well). Human whole-blood samples (25 uL) were added to each well using a CyBio FeliX liquid handling instrument. The plate was shaken on a plate shaker for three min before incubating the reaction mixtures at 37° C. for 20 h. Basel RPMI 1640 medium (supplemented with L-glutamine) was then added to each well (25 uL per well) prior to liberating plasma from each sample by centrifugation (450×g, 5 min, ambient temperature). Treated plasma samples (3 uL) were subsequently transferred to individual wells of a white, shallow, 384-well ProxiPlate (Perkin Elmer) using the FeliX liquid handling instrument and their interleukin 6 levels were measured using AlphaLISA technology as described by the manufacturer, PerkinElmer. Data analyses software was used to determine compound EC50 values where the baseline was established using average DMSO values and 100% induction established using reference compound values at the highest concentration tested. EC50's can be determined with software such as Graphpad Prism™.

IFN-α = conditions: fold lower potency vs corresponding purine-8-one compound; cited from earlier work

human TLR7, sequence (Q9NYK1 27-1049): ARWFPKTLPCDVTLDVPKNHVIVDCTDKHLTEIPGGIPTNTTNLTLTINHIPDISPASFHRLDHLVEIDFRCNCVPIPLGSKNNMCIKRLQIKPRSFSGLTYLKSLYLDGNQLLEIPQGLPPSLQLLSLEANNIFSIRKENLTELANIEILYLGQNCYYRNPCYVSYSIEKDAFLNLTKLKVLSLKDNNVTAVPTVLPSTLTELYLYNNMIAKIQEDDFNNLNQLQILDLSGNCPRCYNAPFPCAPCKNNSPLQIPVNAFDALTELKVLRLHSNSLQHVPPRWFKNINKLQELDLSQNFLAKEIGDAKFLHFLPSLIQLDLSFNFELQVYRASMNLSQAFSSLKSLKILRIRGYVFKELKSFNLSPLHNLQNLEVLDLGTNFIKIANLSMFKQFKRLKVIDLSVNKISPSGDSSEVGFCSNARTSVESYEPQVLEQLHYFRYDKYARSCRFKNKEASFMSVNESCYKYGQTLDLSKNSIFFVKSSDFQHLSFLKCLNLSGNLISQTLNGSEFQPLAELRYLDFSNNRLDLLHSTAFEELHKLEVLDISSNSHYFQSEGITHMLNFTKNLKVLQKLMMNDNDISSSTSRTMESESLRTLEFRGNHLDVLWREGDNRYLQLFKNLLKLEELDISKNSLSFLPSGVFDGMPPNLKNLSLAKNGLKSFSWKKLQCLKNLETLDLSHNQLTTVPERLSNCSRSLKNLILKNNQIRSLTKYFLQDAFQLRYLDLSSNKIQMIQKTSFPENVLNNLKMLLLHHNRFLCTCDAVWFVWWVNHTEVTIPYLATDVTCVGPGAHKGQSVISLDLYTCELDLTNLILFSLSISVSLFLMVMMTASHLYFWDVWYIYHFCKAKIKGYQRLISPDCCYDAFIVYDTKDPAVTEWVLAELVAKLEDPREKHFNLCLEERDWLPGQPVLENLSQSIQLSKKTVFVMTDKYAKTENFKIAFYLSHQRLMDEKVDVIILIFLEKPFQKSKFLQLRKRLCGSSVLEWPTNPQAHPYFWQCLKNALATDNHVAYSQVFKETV

| SMILES | EC50 (human TLR7) [µM] | EC50 (interleukin 6 (IL-6)) [µM] | potency less than that of the corresponding purine-8-one compound, as measured by IFN-α induction (IFN-α) [×] |
| --- | --- | --- | --- |
| CCCCOc1nc(N)c2nc(O)n(Cc3cnc(CO)cn3)c2n1 [Compound 6] | 0.288 |  |  |
| CCCCOc1nc(N)c2nc(O)n(Cc3ccccc3)c2n1 [Compound B, reference compound] | 0.47 |  |  |
| CCCCOc1nc(N)c2nc(O)n(Cc3cnc(CNCc4ccncc4)cn3)c2n1 [Ia-01] | 0.33 | 1 |  |
| CCCCOc1nc(N)c2nc(O)n(Cc3cnc(CNCC4COC4)cn3)c2n1 [Ia-02] | 11.2 |  |  |
| CCCCOc1nc(N)c2nc(O)n(Cc3cnc(CNCc4ccccc4)cn3)c2n1 [Ia-03] | 0.18 | 1 |  |
| CCCCOc1nc(N)c2nc(O)n(Cc3cnc(CNCCOC)cn3)c2n1 [Ia-04] | 0.31 | 0.6 |  |
| CCCCOc1nc(N)c2nc(O)n(Cc3cnc(CNC4CC4)cn3)c2n1 [Ia-05] | 0.14 | 0.36 |  |
| CCCCOc1nc(N)c2nc(O)n(Cc3cnc(CNC(C)C)cn3)c2n1 [Ia-06] | 0.083 | 0.21 |  |
| CCCCOc1nc(N)c2nc(O)n(Cc3cnc(CNC4COC4)cn3)c2n1 [Ia-07] | 0.49 | 1 |  |
| CCCCOc1nc(N)c2nc(O)n(Cc3cnc(CNC4CCC4)cn3)c2n1 [Ia-08] | 0.024 | 0.22 |  |
| CCCCNCc1cnc(Cn2c(O)nc3c(N)nc(OCCCC)nc32)cn1 [Ia-09] | 0.089 | 0.42 |  |
| CCCCOc1nc(N)c2nc(O)n(Cc3cnc(CNC)cn3)c2n1 [Ia-10] | 0.29 | 0.57 |  |
| CCCCNCc1ccc(Cn2c(O)nc3c(N)nc(OCCCC)nc32)nc1 [Ib-01] | 0.015 | 0.077 |  |
| CCCCOc1nc(N)c2nc(O)n(Cc3ccc(CNCCOC)cn3)c2n1 [Ib-02] | 0.028 | 0.11 |  |
| CCCCOc1nc(N)c2nc(O)n(Cc3ccc(CNC4CC4)cn3)c2n1 [Ib-03] | 0.018 | 0.062 |  |
| CCCCOc1nc(N)c2nc(O)n(Cc3ccc(CNC4CCC4)cn3)c2n1 [Ib-04] | 0.012 | 0.078 |  |
| CCCCOc1nc(N)c2nc(O)n(Cc3ccc(CNCCCN)cn3)c2n1 [Ib-05] | 0.062 | 0.26 |  |

| SMILES | EC50 (human TLR7) [µM] | EC50 (interleukin 6 (IL-6)) [µM] | potency less than that of the corresponding purine-8-one compound, as measured by IFN-α induction (IFN-α) [×] |
| --- | --- | --- | --- |
| CCCCOc1nc(N)c2nc(O)n(Cc3ccc(CNCc4ccccc4)cn3)c2n1 [Ib-06] |  | 0.19 |  |
| CCCCOc1nc(N)c2nc(O)n(Cc3ccc(CNCc4ccc(N)cc4)cn3)c2n1 [Ib-07] | 0.041 | 0.1 |  |
| CCCCOc1nc(N)c2nc(O)n(Cc3ccc(CNCCCOCCOCCOCCCNC(=O)OC(C)(C)C)cn3)c2n1 [Ib-08] | 0.047 | 0.33 |  |
| CCCCNCc1ccc(Cn2c(O)nc3c(N)nc(OCCCC)nc32)cn1 [Ic-01] | 0.0048 | 0.026 |  |
| CCCCOc1nc(N)c2nc(O)n(Cc3ccc(CNCCOC)nc3)c2n1 [Ic-02] | 0.009 |  |  |
| CCCCOc1nc(N)c2nc(O)n(Cc3ccc(CNC4CC4)nc3)c2n1 [Ic-03] | 0.0053 | 0.014 |  |
| CCCCOc1nc(N)c2nc(O)n(Cc3ccc(CNCCCN)nc3)c2n1 [Ic-05] | 0.014 | 0.028 |  |
| CCCCOc1nc(N)c2nc(O)n(Cc3ccc(CNCc4ccccc4)nc3)c2n1 [Ic-06] |  | 0.18 |  |
| CCCCOc1nc(N)c2nc(O)n(Cc3ccc(CNCc4ccc(N)cc4)nc3)c2n1 [Ic-07] | 0.011 | 0.02 |  |
| CCCCOc1nc(N)c2nc(O)n(Cc3ccc(CNCCCOCCOCCOCCCNC(=O)OC(C)(C)C)nc3)c2n1 [Ic-08] | 0.023 | 0.15 |  |
| CCCCCCNCc1ccc(Cn2c(O)nc3c(N)nc(OCCCC)nc32)cn1 [Ic-09] |  | 0.037 |  |
| CCCCOc1nc(N)c2nc(O)n(Cc3ccc(CNCCC)nc3)c2n1 [Ic-10] | 0.0061 | 0.027 |  |
| CCCCOc1nc(N)c2nc(O)n(Cc3ccc(CNC4CCCC4)nc3)c2n1 [Ic-11] |  | 0.023 |  |
| CCCCOc1nc(N)c2nc(O)n(Cc3ccc(CN4CCC(N)CC4)nc3)c2n1 [Ic-12] |  | 0.013 |  |
| CCCCOc1nc(N)c2nc(O)n(Cc3ccc(CN4CCC(CN)CC4)nc3)c2n1 [Ic-13] |  | 0.011 |  |
| CCCCOc1nc(N)c2c(n1)N(Cc1cccc(CN3CCCC3)c1)CC(=O)N2 [Vesatolimod, vesatolimod] |  |  | 100 |

Source: US10919895B2, “Toll-like receptor 7 (TLR7) agonists having a pyridine or pyrazine moiety, conjugates thereof, and methods and uses therefor” (BRISTOL-MYERS SQUIBB COMPANY, priority 2017, dated 2021)
